Experiments:
[1] = target: T1, HEK-293 cells transfected with dox-inducible human wild type FGFR3 (Homo sapiens (Human), UniProt P22607); assay: FGFR3 pFGFR cell assay (ELISA); format: cell-based; settings: HEK-293 dox-inducible FGFR3, 1 hour compound, 100 ng/ml FGF-acidic
How it was run: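 Doxycycline-induced (1 μg/ml) HEK-293 cells expressing wild-type human FGFR3, treated 1 h with compound (1:3 series, top final 5 μM), then stimulated 5 min with 100 ng/ml FGF-acidic. Phospho-FGFR3 measured by ELISA (total FGFR3 capture, phosphotyrosine detection, OD 450 nm); IC50 from 4-parameter fit of POC values.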

[2] = target: T1, HEK-293 cells transfected with dox-inducible human wild type FGFR3; assay: FGFR3 pERK cell assay; format: cell-based; settings: HEK-293 dox-inducible FGFR3, 1 hour compound, 100 ng/ml FGF-acidic; maximum concentration 5 μM
How it was run: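 Doxycycline-induced cells preincubated 1 h at 37 °C with compound (1:3 dilutions, top 5 μM final), then stimulated 5 min with 100 ng/ml FGF-acidic. Lysate phospho-ERK1/2 measured by MSD sandwich assay; IC50 at 50 POC from 4-parameter fit, normalised to no-compound and control-compound wells.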

[3] = target: HEK-293 cells transfected with dox-inducible human wild type FGFR1 (Homo sapiens (Human), UniProt P11362); assay: FGFR1 pERK cell assay; format: cell-based; settings: HEK-293 dox-inducible FGFR1, 1 hour compound, 100 ng/ml FGF-acidic; maximum concentration 5 μM
Sequence of HEK-293 cells transfected with dox-inducible human wild type FGFR1 (P11362 22-822): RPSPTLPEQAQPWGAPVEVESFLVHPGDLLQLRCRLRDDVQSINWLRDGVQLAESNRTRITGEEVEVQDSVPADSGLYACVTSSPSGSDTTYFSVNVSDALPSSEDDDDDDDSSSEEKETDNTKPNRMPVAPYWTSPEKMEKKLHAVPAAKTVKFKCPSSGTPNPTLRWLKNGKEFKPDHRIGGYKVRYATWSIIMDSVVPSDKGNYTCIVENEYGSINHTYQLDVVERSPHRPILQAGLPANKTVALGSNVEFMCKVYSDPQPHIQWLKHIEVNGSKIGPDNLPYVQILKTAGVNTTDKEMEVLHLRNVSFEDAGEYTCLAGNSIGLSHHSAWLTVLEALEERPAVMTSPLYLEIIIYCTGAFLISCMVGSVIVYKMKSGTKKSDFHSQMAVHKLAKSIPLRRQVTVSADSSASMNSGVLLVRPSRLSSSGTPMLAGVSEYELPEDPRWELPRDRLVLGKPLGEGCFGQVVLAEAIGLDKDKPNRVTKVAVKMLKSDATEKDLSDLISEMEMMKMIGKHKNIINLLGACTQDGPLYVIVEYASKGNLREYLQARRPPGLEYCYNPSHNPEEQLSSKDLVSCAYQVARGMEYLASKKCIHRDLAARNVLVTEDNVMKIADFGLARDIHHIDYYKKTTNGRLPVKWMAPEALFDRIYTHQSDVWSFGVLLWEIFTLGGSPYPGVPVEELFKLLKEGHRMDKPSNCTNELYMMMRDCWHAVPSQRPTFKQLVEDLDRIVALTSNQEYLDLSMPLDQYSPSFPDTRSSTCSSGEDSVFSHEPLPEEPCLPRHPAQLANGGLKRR
How it was run: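 In HEK-293 cells with dox-induced human wild-type FGFR1, compounds (1:3 dilutions, top 5 μM final) were applied 1 h at 37°C before 5 min stimulation with 100 ng/ml FGF-acidic. Phospho-ERK1/2 measured by MSD sandwich immunoassay; IC50 from 4-parameter fit of POC versus vehicle and control compound.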

[4] = target: recombinant human FGFR3 (amino acids R397-T806) (Homo sapiens (Human), UniProt P22607); assay: FGFR3 enzyme activity assay (LanthaScreen TR-FRET); format: biochemical; settings: 25 μM ATP, 10 min incubation at 22° C., average of multiple determinations if made, read-out: FGFR3 Enz FRET IC50
Sequence of recombinant human FGFR3 (amino acids R397-T806) (P22607 397-806): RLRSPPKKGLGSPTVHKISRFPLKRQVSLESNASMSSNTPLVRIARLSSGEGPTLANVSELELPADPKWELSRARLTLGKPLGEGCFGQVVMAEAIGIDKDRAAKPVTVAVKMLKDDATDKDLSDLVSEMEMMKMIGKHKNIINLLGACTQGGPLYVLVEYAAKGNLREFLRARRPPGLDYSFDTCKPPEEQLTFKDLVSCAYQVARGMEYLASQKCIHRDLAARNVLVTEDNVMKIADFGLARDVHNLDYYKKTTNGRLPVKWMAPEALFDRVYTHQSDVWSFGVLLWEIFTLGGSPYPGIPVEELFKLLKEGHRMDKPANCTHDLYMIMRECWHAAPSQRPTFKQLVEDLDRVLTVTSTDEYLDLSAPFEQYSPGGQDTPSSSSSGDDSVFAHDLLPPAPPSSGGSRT
How it was run: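 GST-HIS6-tagged human FGFR3 (R397-T806) was reacted with 100 nM Alexa Fluor 647-Poly-GT substrate and 25 μM ATP plus compound in HEPES/MgCl2/Triton buffer, pH 7.5, 2% DMSO, for 10 min at 22 °C.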

T1 sequence (P22607 23-806): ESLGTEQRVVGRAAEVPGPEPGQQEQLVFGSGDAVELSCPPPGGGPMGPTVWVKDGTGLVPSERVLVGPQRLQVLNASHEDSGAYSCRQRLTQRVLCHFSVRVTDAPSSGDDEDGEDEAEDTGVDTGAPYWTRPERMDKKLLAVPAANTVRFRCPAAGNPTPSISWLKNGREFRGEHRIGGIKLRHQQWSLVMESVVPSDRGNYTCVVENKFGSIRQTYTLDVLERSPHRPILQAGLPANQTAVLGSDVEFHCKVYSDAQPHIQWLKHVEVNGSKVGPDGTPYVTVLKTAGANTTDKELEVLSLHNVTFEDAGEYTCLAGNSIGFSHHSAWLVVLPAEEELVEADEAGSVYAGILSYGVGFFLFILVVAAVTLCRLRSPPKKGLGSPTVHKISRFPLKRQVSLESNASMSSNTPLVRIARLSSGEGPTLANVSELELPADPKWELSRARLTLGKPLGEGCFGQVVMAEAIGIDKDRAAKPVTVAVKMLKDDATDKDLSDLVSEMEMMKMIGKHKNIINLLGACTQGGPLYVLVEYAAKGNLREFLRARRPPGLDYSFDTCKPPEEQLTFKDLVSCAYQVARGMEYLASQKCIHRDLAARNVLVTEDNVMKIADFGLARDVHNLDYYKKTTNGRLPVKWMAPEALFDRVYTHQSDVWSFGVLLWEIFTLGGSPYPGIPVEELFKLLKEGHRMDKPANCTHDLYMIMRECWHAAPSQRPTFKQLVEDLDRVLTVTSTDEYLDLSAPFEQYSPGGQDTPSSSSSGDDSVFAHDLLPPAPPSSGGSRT

IC50 [1] [µM]	IC50 [2] [µM]	IC50 [3] [µM]	IC50 [4] [µM]	Structure (SMILES)
0.012	0.013	0.096	0.006	C=CC(=O)N1CC(S(=O)(=O)N2CCC(n3cc(-c4cc(OC)c5c(C#N)cnn5c4)cn3)CC2)C1 [Example 134, 6-(1-(1-((1-acryloylazetidin-3-yl)sulfonyl)piperidin-4-yl)-1H-pyrazol-4-yl)-4-methoxypyrazolo[1,5-a]pyridine-3-carbonitrile]
0.017	0.016	0.116	0.002	C#CC(=O)N1CC(C(=O)N2CCC(n3cc(-c4cc(OC)c5c(C#N)cnn5c4)cn3)CC2)C1 [Example 138, 4-methoxy-6-(1-(1-(1-propioloylazetidine-3-carbonyl)piperidin-4-yl)-1H-pyrazol-4-yl)pyrazolo[1,5-a]pyridine-3-carbonitrile]
0.527	–	–	0.002	COc1cc(-c2cnn(C3CCN(C(=O)C4CN(C(=O)/C=C/CN(C)C)C4)CC3)c2)cn2ncc(C#N)c12 [Example 143, (E)-6-(1-(1-(1-(4-(dimethylamino)but-2-enoyl)azetidine-3-carbonyl)piperidin-4-yl)-1H-pyrazol-4-yl)-4-methoxypyrazolo [1,5-a]pyridine-3-carbonitrile]
0.257	–	–	0.003	COc1cc(-c2cnn(C3CCN(C(=O)C4CN(C(=O)/C=C/CN5CCCCC5)C4)CC3)c2)cn2ncc(C#N)c12 [Example 145, (E)-4-methoxy-6-(1-(1-(1-(4-(piperidin-1-yl)but-2-enoyl)azetidine-3-carbonyl)piperidin-4-yl)-1H-pyrazol-4-yl)pyrazolo[1,5-a]pyridine-3-carbonitrile]
0.08	0.096	0.496	0.002	COc1cc(-c2cnn(C3CCN(CC4CN(C(=O)/C=C/CN(C)C)C4)CC3)c2)cn2ncc(C#N)c12 [Example 146, (E)-6-(1-(1-((1-(4-(dimethylamino)but-2-enoyl)azetidin-3-yl)methyl)piperidin-4-yl)-1H-pyrazol-4-yl)-4-methoxypyrazolo [1,5-a]pyridine-3-carbonitrile]
0.139	–	–	0.004	COc1cc(-c2cnn(C3CCN(C(=O)C4CN(C(=O)/C=C/CN(C)C)C4)CC3)c2)cn2ncc(Cl)c12 [Example 174]
0.052	–	–	0.005	COc1cc(-c2cnn(C3CCN(CC4CN(C(=O)/C=C/CN5CCCCC5)C4)CC3)c2)cn2ncc(C#N)c12 [Example 175, (E)-4-methoxy-6-(1-(1-((1-(4-(piperidin-1-yl)but-2-enoyl)azetidin-3-yl)methyl)piperidin-4-yl)-1H-pyrazol-4-yl)pyrazolo[1,5-a]pyridine-3-carbonitrile]
0.044	–	–	0.012	C=CC(=O)N(C)c1ccc(C(=O)N2CCC(n3cc(-c4cc(OC)c5c(C#N)cnn5c4)cn3)CC2)cc1 [Example 178, N-(4-(4-(4-(3-cyano-4-methoxypyrazolo[1,5-a]pyridin-6-yl)-1H-pyrazol-1-yl)piperidine-1-carbonyl)phenyl)-N-methylacrylamide]
0.006	0.006	0.035	0.005	C=CS(=O)(=O)N1CCC(C(=O)N2CCC(n3cc(-c4cc(OC)c5c(C#N)cnn5c4)cn3)CC2)CC1 [Example 186, 4-methoxy-6-(1-(1-(1-(vinylsulfonyl)piperi-dine-4-carbonyl)piperidin-4-yl)-1H-pyrazol-4-yl)pyrazolo[1,5-a]pyridine-3-carbonitrile]

More lines, now with the values behind:

Structure (SMILES)	IC50 [1] [µM]	IC50 [2] [µM]	IC50 [3] [µM]	IC50 [4] [µM]
C=CC(=O)N1CC(C(=O)N2CCN(c3ccc(-c4cc(OC)c5c(C#N)cnn5c4)cc3)CC2)C1 [Example 100, 6-(4-(4-(1-acryloylazetidine-3-carbonyl)piperazin-1-yl)phenyl)-4-methoxypyrazolo[1,5-a]pyridine-3-carbonitrile]	0.021	0.021	0.18	0.002
C=CC(=O)N1CC(C(=O)N2CCN(c3ccc(-c4cc(OC)c5c(C#N)cnn5c4)cn3)CC2)C1 [Example 111, 6-(6-(4-(1-acryloylazetidine-3-carbonyl)piperazin-1-yl)pyridin-3-yl)-4-methoxypyrazolo[1,5-a]pyridine-3-carbonitrile]	0.043	0.034	0.288	0.003
C=CC(=O)N1CC(C(=O)N2CCC(n3cc(-c4cc(OC)c5c(Cl)cnn5c4)cn3)CC2)C1 [Example 122, 1-(3-(4-(4-(3-chloro-4-methoxypyrazolo[1,5-a]pyridin-6-yl)-1H-pyrazol-1-yl)piperidine-1-carbonyl)azetidin-1-yl)prop-2-en-1-one]	0.071	0.052	0.492	0.009
C=CC(=O)N1CC(OC)(C(=O)N2CCC(n3cc(-c4cc(OC)c5c(Cl)cnn5c4)cn3)CC2)C1 [Example 124, 1-(3-(4-(4-(3-chloro-4-methoxypyrazolo[1,5-a]pyridin-6-yl)-1H-pyrazol-1-yl)piperidine-1-carbonyl)-3-methoxyazetidin-1-yl)prop-2-en-1-one]	0.024	–	–	0.008
C=CC(=O)N1CC(C(=O)N2CCC(n3cc(-c4cc(OC5CCC5)c5c(C#N)cnn5c4)cn3)CC2)C1 [Example 125, 6-(1-(1-(1-acryloylazetidine-3-carbonyl)piperidin-4-yl)-1H-pyrazol-4-yl)-4-cyclobutoxypyrazolo[1,5-a]pyridine-3-carbonitrile]	0.009	–	–	0.003
C=CC(=O)N1CC(C(=O)N2CCC(n3cc(-c4cc(OCC)c5c(C#N)cnn5c4)cn3)CC2)C1 [Example 126, 6-(1-(1-(1-acryloylazetidine-3-carbonyl)piperidin-4-yl)-1H-pyrazol-4-yl)-4-ethoxypyrazolo[1,5-a]pyridine-3-carbonitrile]	0.02	–	–	0.005
C=CC(=O)N1CC(C(=O)N2CCC(n3cc(-c4cc(OC(C)C)c5c(C#N)cnn5c4)cn3)CC2)C1 [Example 127, 6-(1-(1-(1-acryloylazetidine-3-carbonyl)piperidin-4-yl)-1H-pyrazol-4-yl)-4-isopropoxypyrazolo[1,5-a]pyridine-3-carbonitrile]	0.018	–	–	0.003
C=CC(=O)N1CC(C(=O)N2CCC(n3cc(-c4cc(OCC(C)C)c5c(C#N)cnn5c4)cn3)CC2)C1 [Example 128, 6-(1-(1-(1-acryloylazetidine-3-carbonyl)piperidin-4-yl)-1H-pyrazol-4-yl)-4-isobutoxypyrazolo[1,5-a]pyridine-3-carbonitrile]	0.028	–	–	0.003
C=CC(=O)N1CC(C(=O)N2CCC(n3cc(-c4cc(C(C)C)c5c(C#N)cnn5c4)cn3)CC2)C1 [Example 129, 6-(1-(1-(1-acryloylazetidine-3-carbonyl)piperidin-4-yl)-1H-pyrazol-4-yl)-4-isopropylpyrazolo[1,5-a]pyridine-3-carbonitrile]	0.023	–	–	0.006
C=CC(=O)N1CC(C(=O)N2CCC(n3cc(-c4cc(-c5ccc(NC(=O)C6CC6)cc5F)c5c(C#N)cnn5c4)cn3)CC2)C1 [Example 130, N-(4-(6-(1-(1-(1-acryloylazetidine-3-carbonyl)piperidin-4-yl)-1H-pyrazol-4-yl)-3-cyanopyrazolo[1,5-a]pyridin-4-yl)-3-fluorophenyl)cyclopropane-carboxamide]	0.295	–	–	0.002
C=CC(=O)N1CC(C(=O)N2CCC(n3cc(-c4cc(-c5ccccc5F)c5c(C#N)cnn5c4)cn3)CC2)C1 [Example 131, 6-(1-(1-(1-acryloylazetidine-3-carbonyl)piperidin-4-yl)-1H-pyrazol-4-yl)-4-(2-fluorophenyl)pyrazolo[1,5-a]pyridine-3-carbonitrile]	0.015	–	–	0.004
C=CC(=O)N1CC(CN2CCC(n3cc(-c4cc(OC)c5c(C#N)cnn5c4)cn3)CC2)C1 [Example 132, 6-(1-(1-((1-acryloylazetidin-3-yl)methyl)piperidin-4-yl)-1H-pyrazol-4-yl)-4-methoxypyrazolo[1,5-a]pyridine-3-carbonitrile]	0.031	–	–	0.008

— patent US12180207B2 (ARRAY BIOPHARMA INC., priority 2018, dated 2024)
